Measured values from US20120214802A1, “PYRROLIDINE COMPOUNDS WHICH INHIBIT BETA-SECRETASE ACTIVITY AND METHODS OF USE THEREOF” (priority 2009, published 2012).

How the values were obtained:
[1] = target: T1, CYP3A4 (Homo sapiens, UniProt P08684); assay: CYP3A4 inhibition (midazolam metabolism in human liver microsomes); assay type: in vitro ADME; conditions: substrate midazolam, read-out: CYP 3A4Ki
T1 construct: host or cells: human liver microsomes
Summary of the method: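 Human liver microsomes (0.1 mg/mL) with midazolam at 1.25–10 μM and compound at 0.078–10 μM, in 100 mM phosphate pH 7.4 with NADPH regeneration at 37.2 °C, sampled at 20, 30 and 40 min. 1′-Hydroxymidazolam was quantified by LC-MS/MS. Ki was obtained by Dixon plots across substrate concentrations.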

[2] = target: T2, memapsin 2 (Cricetulus griseus, UniProt G3IAK4); assay: Cellular Aβ IC50 determination (Aβ40 sandwich ELISA); assay type: cell-based, Chinese hamster; conditions: CHO cells over-expressing human APP695 with London and Swedish mutations, 24 h, read-out: M2 IC50
T2 construct: endogenous in cells; host or cells: Chinese hamster ovary cells over-expressing human APP695 (London + Swedish)
T2 sequence (G3IAK4 22-501): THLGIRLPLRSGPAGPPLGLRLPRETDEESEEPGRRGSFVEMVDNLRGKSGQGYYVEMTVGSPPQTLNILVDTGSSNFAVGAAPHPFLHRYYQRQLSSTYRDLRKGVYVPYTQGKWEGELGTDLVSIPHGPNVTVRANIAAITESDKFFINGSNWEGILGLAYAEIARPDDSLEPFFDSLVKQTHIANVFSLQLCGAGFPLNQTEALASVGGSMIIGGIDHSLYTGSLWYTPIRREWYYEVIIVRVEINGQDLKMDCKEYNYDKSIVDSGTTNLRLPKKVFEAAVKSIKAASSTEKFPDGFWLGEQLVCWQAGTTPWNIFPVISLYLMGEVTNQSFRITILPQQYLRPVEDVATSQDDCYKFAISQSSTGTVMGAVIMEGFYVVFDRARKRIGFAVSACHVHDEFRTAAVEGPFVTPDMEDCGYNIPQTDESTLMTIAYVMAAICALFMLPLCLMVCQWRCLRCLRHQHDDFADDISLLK
Summary of the method: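 CHO cells overexpressing human APP695 (London and Swedish mutations) treated 48 h post-seeding with serially diluted compounds (top near 4 μM, 0.4% DMSO), 24 h at 37° C, 5% CO2. Medium Aβ40 measured by sandwich ELISA; levels relative to control fitted to 4-parameter IC50 model.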

[3] = target: memapsin 2 (Homo sapiens, UniProt P56817); assay: Inhibition of memapsin 2 beta-secretase activity (fluorogenic substrate FS-2); assay type: biochemical; conditions: pH 4, 37° C., read-out: M2 Ki
Chain of memapsin 2 (Homo sapiens, UniProt P56817) (P56817 46-501): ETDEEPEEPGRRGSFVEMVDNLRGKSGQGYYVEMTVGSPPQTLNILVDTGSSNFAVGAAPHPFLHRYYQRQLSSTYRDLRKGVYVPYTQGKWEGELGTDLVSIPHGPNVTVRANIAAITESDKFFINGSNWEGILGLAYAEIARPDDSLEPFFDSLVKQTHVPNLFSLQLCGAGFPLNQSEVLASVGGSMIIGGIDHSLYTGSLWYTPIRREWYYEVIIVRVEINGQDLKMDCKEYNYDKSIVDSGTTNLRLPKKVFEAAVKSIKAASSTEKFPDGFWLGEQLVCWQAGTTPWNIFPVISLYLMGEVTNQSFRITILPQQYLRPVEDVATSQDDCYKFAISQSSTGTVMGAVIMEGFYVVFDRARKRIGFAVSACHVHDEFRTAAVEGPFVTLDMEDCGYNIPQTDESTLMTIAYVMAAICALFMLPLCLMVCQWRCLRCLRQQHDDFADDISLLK
Summary of the method: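 Memapsin 2 pre-incubated with compound for 20 min at pH 4, 37° C. Reaction started with fluorogenic substrate FS-2, […], derived from Swedish-variant APP beta-secretase site; inhibition measured from fluorescence.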

[4] = target: cathepsin D (Homo sapiens, UniProt P07339); assay: Inhibition of cathepsin D activity (MALDI-TOF, substrate ELDLAVEFWHDR); assay type: biochemical; conditions: substrate peptide ELDLAVEFWHDR, pH 4.1, 37 degrees C, read-out: CD Ki
Chain of cathepsin D (P07339 65-412, species assumed): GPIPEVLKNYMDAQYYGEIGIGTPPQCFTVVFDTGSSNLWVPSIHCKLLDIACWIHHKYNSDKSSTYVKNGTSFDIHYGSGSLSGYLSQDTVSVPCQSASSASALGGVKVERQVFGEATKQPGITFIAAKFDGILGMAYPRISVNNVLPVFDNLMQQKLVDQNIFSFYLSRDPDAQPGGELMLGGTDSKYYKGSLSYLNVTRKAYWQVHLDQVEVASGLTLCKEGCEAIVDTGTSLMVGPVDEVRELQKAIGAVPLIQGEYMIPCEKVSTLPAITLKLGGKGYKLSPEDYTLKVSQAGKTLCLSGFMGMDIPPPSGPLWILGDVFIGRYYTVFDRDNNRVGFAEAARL
Procedure: [The source words this procedure for another target and reports this target under the same test.] A substrate peptide NH3-ELDLAVEFWHDR-CO2 (SEQ ID NO.: 1) was dissolved at 2 mg/mL in 10% glacial acetic acid and diluted into 0.009M NaOH to obtain μM concentration at pH 4.1. After equilibration at 37 degrees C., the reactions were initiated by the addition of an aliquot of memapsin 2. Aliquots were removed at time intervals, and combined with an equal volume of MALDI-TOF matrix (α-hydroxycinnamic acid in acetone, 20 mg/mL) and immediately spotted in duplicate onto a stainless-steel MALDI sample plate. MALDI-TOF mass spectrometry was performed on a PE Biosystems Voyager DE. The instrument was operated at 25,000 accelerating volts in positive mode with a 150 ns delay. Ions with a mass-to-charge ratio (m/z) were detected in the range of 650-2000 atomic mass units. Data were analyzed by the Voyager Data Explorer module to obtain ion intensity data for mass species of substrates and corresponding products in a given mixture. Relative product formation was calculated as the ratio of signal intensity of the product to the sum of signal intensities of both product and the corresponding substrate. Relative product formed per unit time was obtained from non-linear regression analysis of the data representing the initial 15% formation of product using the model:
where k was the relative hydrolytic rate constant and T was time in seconds. Initial rates were expressed relative to uninhibited controls and fit to a tight-binding model of competitive inhibition as above.

[5] = Hepatic intrinsic clearance in liver microsomes; assay type: in vitro ADME; conditions: human, pH 7.4, human liver microsomes, in vitro clearance, read-out: HLM CL
Procedure: To 500 μl of 200 mM Na^+K^+phosphate buffer (pH 7.4), 100 μl of 1 mM EDTA solution was added followed by 100 μl of 2 mg protein/ml human liver microsomes. A 10 μl aliquot of test compound (20 mM stock in 50% acetonitrile) was diluted further with 40 μl of H2O (total assay volume […]. Assay mixture is incubated for 5 minutes at 37° C. The assay was initiated by addition of 250 μl of 4 mM NADPH solution. Incubation was continued at 37° C. Separate reaction mixtures were prepared for 0, 5, 10, 20, and 30 min durations. Individual reactions were halted by addition of 150 μl of 100% acetonitrile. Internal standard (10 μl of 100 ng/ml diazepam solution) was added. Concentration of the test compound in each separate reaction was measured using LC/MS/MS and a standard curve for the test compound according to standard procedures.
The hepatic intrinsic clearance in liver microsome was determined by the following procedure described by Davies and Morris (Davies, B. and Morris, T. (19930) Physiological parameters in laboratory animals and humans. Pharm Res. 10:1093-1095) detailing the relationship of in vitro clearance to physiological parameters in animals and human subjects.
The amount of compound remaining at each time point was expressed relative to the amount present in the initial (0 min) incubation. The relationship of relative amount vs. time was used to determine the half life of the compound in the microsome assay. The concentration independent rate constant, k1, was determined from rectangular hyperbolic fit:
where T is time (in minutes), from the relationship of relative amount vs. time. Alternatively, k1 was determined from a transform of the equation, where
Conversion to in vivo clearance was obtained from the relation (Davies and Morris, 1993):
where v=velocity of metabolism, [S] is the concentration of the compound, and volumes are expressed in mL.

T1 sequence (P08684 whole entry): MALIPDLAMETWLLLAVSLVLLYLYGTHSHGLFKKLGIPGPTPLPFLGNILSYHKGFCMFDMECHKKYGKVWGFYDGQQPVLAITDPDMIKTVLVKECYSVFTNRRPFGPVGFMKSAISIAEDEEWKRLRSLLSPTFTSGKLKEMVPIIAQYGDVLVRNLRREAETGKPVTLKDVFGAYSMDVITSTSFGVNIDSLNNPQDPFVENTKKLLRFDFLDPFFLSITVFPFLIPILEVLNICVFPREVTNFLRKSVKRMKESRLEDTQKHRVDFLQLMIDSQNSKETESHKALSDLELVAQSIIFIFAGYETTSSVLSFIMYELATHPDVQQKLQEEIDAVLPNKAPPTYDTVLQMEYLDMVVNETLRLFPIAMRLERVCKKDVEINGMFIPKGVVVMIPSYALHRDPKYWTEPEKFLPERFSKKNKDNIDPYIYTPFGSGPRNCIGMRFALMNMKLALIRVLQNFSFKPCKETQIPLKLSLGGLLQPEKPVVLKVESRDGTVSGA

Row | Ki [1] [nM] | IC50 [2] [nM] | Ki [3] [nM] | Ki [4] [nM] | CLint scaled at 200 μM [5] [mL/min/kg] | SMILES
1 | > 10000 | < 500 | < 250 | > 500 |  | Cc1csc([C@H]2CCCN2C(=O)c2cc(C(=O)N[C@@H](Cc3ccccc3)[C@H](O)[C@H]3CCCN3)cc(-c3ncco3)c2)n1 [1-19, N-((1R,2S)-1-hydroxy-3-phenyl-1-((R)-pyrrolidin-2-yl)propan-2-yl)-3-((R)-2-(4-methylthiazol-2-yl)pyrrolidine-1-carbonyl)-5-(oxazol-2-yl)benzamide]
2 | 1000 to 5000 | < 500 | < 250 | 300 to 500 |  | Cc1csc([C@H]2CCCN2C(=O)c2cccc(C(=O)N[C@@H](Cc3ccccc3)[C@H](O)[C@H]3C[C@@H](OCc4ccccc4)CN3)c2)n1 [1-22, N-((1R,2S)-1-((2R,4R)-4-(benzyloxy)pyrrolidin-2-yl)-1-hydroxy-3-phenylpropan-2-yl)-3-((R)-2-(4-methylthiazol-2-yl)pyrrolidine-1-carbonyl)benzamide]
3 | 5000 to 10000 | < 500 | < 250 | > 500 |  | Cc1csc([C@H]2CCCN2C(=O)c2cc(C(=O)N[C@@H](Cc3ccccc3)[C@H](O)[C@H]3CCCN3)cc(N(C)S(C)(=O)=O)c2)n1 [1-23, N-((1R,2S)-1-hydroxy-3-phenyl-1-((R)-pyrrolidin-2-yl)propan-2-yl)-3-(N-methylmethylsulfonamido)-5-((R)-2-(4-methylthiazol-2-yl)pyrrolidine-1-carbonyl)benzamide]
4 |  | > 1000 | < 250 | > 500 | < 400 | Cc1csc([C@H]2CCCN2C(=O)c2cc(C(=O)N[C@@H](Cc3ccccc3)[C@H](O)[C@H]3CCCN3)cc(-c3cccc(C(F)(F)F)c3)c2)n1 [1-43, N-((1R,2S)-1-hydroxy-3-phenyl-1-((R)-pyrrolidin-2-yl)propan-2-yl)-5-((R)-2-(4-methylthiazol-2-yl)pyrrolidine-1-carbonyl)-3′-(trifluoromethyl)biphenyl-3-carboxamide]
5 | 1000 to 5000 | 500 to 1000 | < 250 | > 500 | < 400 | Cc1csc([C@H]2CCCN2C(=O)c2cccc(C(=O)N[C@@H](Cc3cc(F)cc(F)c3)[C@H](O)[C@H]3CCCN3)c2)n1 [1-44, N-((1R,2S)-3-(3,5-difluorophenyl)-1-hydroxy-1-((R)-pyrrolidin-2-yl)propan-2-yl)-3-((R)-2-(4-methylthiazol-2-yl)pyrrolidine-1-carbonyl)benzamide]
6 |  | < 500 | < 250 | < 300 |  | Cc1csc([C@H]2CCCN2C(=O)c2cc(C(=O)N[C@@H](Cc3cc(F)cc(F)c3)[C@H](O)[C@H]3CCCN3)cc(-c3ncco3)c2)n1 [1-49, N-((1R,2S)-3-(3,5-difluorophenyl)-1-hydroxy-1-((R)-pyrrolidin-2-yl)propan-2-yl)-3-((R)-2-(4-methylthiazol-2-yl)pyrrolidine-1-carbonyl)-5-(oxazol-2-yl)benzamide]
7 |  |  | < 250 | > 500 |  | Cc1cc(C(=O)N[C@@H](Cc2cc(F)cc(F)c2)[C@H](O)[C@H]2CCCN2)cc(C(=O)N2CCC[C@@H]2c2nc(C)cs2)c1 [1-64, N-((1R,2S)-3-(3,5-difluorophenyl)-1-hydroxy-1-((R)-pyrrolidin-2-yl)propan-2-yl)-3-methyl-5-((R)-2-(4-methylthiazol-2-yl)pyrrolidine-1-carbonyl)benzamide]
8 |  |  | < 250 | 300 to 500 |  | Cc1coc([C@H]2CCCN2C(=O)c2cc(C(=O)N[C@@H](Cc3cc(F)cc(F)c3)[C@H](O)[C@H]3CCCN3)cc(-c3ncco3)c2)n1 [1-69, N-((1R,2S)-3-(3,5-difluorophenyl)-1-hydroxy-1-((R)-pyrrolidin-2-yl)propan-2-yl)-3-((R)-2-(4-methyloxazol-2-yl)pyrrolidine-1-carbonyl)-5-(oxazol-2-yl)benzamide]
9 |  |  | < 250 | < 300 |  | C=CCO[C@H]1CN[C@@H]([C@@H](O)[C@H](Cc2ccccc2)NC(=O)c2cc(C(=O)N3CCC[C@@H]3c3nc(C)cs3)cc(-c3ncco3)c2)C1 [1-70, N-((1R,2S)-1-((2R,4R)-4-(allyloxy)pyrrolidin-2-yl)-1-hydroxy-3-phenylpropan-2-yl)-3-((R)-2-(4-methylthiazol-2-yl)pyrrolidine-1-carbonyl)-5-(oxazol-2-yl)benzamide]
10 |  |  | < 250 | > 500 |  | Cc1csc([C@H]2CCCN2C(=O)c2cc(I)cc(C(=O)N[C@@H](Cc3ccccc3)[C@H](O)[C@H]3CCCN3)c2)n1 [1-71, N-((1R,2S)-1-hydroxy-3-phenyl-1-((R)-pyrrolidin-2-yl)propan-2-yl)-3-iodo-5-((R)-2-(4-methylthiazol-2-yl)pyrrolidine-1-carbonyl)benzamide]
11 |  |  | < 250 | > 500 |  | Cc1csc([C@H]2CCCN2C(=O)c2cccc(C(=O)N[C@@H](Cc3ccccc3)[C@H](O)[C@H]3C[C@@H](Oc4ccccc4)CN3)c2)n1 [1-74, N-((1R,2S)-1-hydroxy-1-((2R,4R)-4-phenoxypyrrolidin-2-yl)-3-phenylpropan-2-yl)-3-((R)-2-(4-methylthiazol-2-yl)pyrrolidine-1-carbonyl)benzamide]
12 |  |  | < 250 | > 500 |  | Cc1csc([C@H]2CCCN2C(=O)c2cc(C(=O)N[C@@H](Cc3ccccc3)[C@H](O)[C@H]3CCCN3)cc(N3CCCCS3(=O)=O)c2)n1 [1-78, N-((1R,2S)-1-hydroxy-3-phenyl-1-((R)-pyrrolidin-2-yl)propan-2-yl)-3-((R)-2-(4-methylthiazol-2-yl)pyrrolidine-1-carbonyl)-5-(thiazinanyl-S,S-dioxide)benzamide]
13 |  |  | < 250 | 300 to 500 |  | Cc1csc([C@H]2CCCN2C(=O)c2cc(C(=O)N[C@@H](Cc3ccccc3)[C@H](O)[C@H]3C[C@@H](Oc4ccccc4)CN3)cc(-c3ncco3)c2)n1 [1-79, N-((1R,2S)-1-hydroxy-1-((2R,4R)-4-phenoxypyrrolidin-2-yl)-3-phenylpropan-2-yl)-3-((R)-2-(4-methylthiazol-2-yl)pyrrolidine-1-carbonyl)-5-(oxazol-2-yl)benzamide]
